Entries after “also recorded” stand apart in the source; their conditions may differ.
Tested on: patients with advanced solid tumors
Assay: Phase I safety and tolerability
Type: in vivo, human
[1] = Cohort 1 (N=2), 20 mg BID 17 days + carboplatin
[2] = Cohort 2 (N=7), 20 mg BID 10 days + carboplatin
[3] = Cohort 3 (N=3), 40 mg BID 10 days + carboplatin

`C[C@@H]1COCCN1c1cc(C2([S@](C)(=N)=O)CC2)nc(-c2cc[nH]c3nccc2-3)n1` [ceralasertib] was tested, and the “TEAE Abdominal pain, Grade 1–2” value [1] was 0 patients, n (%), the “TEAE Abdominal pain, Grade ≥3” value [1] was 1 (50) patients, n (%) and the “TEAE Alanine aminotransferase increased, Grade 1–2” value [1] was 0 patients, n (%). The “TEAE Alanine aminotransferase increased, Grade ≥3” value [1] was 0 patients, n (%), the “TEAE Anemia, Grade 1–2” value [1] was 1 (50) patients, n (%) and the “TEAE Anemia, Grade ≥3” value [1] was 0 patients, n (%). For the same compound, the “TEAE Any AE, Grade 1–2” value [1] was 1 (50) patients, n (%), the “TEAE Any AE, Grade ≥3” value [1] was 1 (50) patients, n (%) and the “TEAE Arthralgia, Grade 1–2” value [1] was 0 patients, n (%). The “TEAE Arthralgia, Grade ≥3” value [1] was 0 patients, n (%), the “TEAE Aspartate aminotransferase increased, Grade 1–2” value [1] was 0 patients, n (%) and the “TEAE Aspartate aminotransferase increased, Grade ≥3” value [1] was 0 patients, n (%). The “TEAE Constipation, Grade 1–2” value [1] was 1 (50) patients, n (%), the “TEAE Constipation, Grade ≥3” value [1] was 0 patients, n (%) and the “TEAE Contusion, Grade 1–2” value [1] was 0 patients, n (%). For the same compound, the “TEAE Contusion, Grade ≥3” value [1] was 0 patients, n (%), the “TEAE Cough, Grade 1–2” value [1] was 0 patients, n (%) and the “TEAE Cough, Grade ≥3” value [1] was 0 patients, n (%). For the same compound, the “TEAE Decreased appetite, Grade 1–2” value [1] was 0 patients, n (%), the “TEAE Decreased appetite, Grade ≥3” value [1] was 0 patients, n (%) and the “TEAE Diarrhea, Grade 1–2” value [1] was 1 (50) patients, n (%). For the same compound, the “TEAE Diarrhea, Grade ≥3” value [1] was 0 patients, n (%), the “TEAE Dizziness, Grade 1–2” value [1] was 0 patients, n (%) and the “TEAE Dizziness, Grade ≥3” value [1] was 0 patients, n (%). The “TEAE Dyspnea, Grade 1–2” value [1] was 1 (50) patients, n (%), the “TEAE Dyspnea, Grade ≥3” value [1] was 0 patients, n (%) and the “TEAE Fatigue, Grade 1–2” value [1] was 2 (100) patients, n (%). For the same compound, the “TEAE Fatigue, Grade ≥3” value [1] was 0 patients, n (%), the “TEAE Hypocalcemia, Grade 1–2” value [1] was 0 patients, n (%) and the “TEAE Hypocalcemia, Grade ≥3” value [1] was 0 patients, n (%). For the same compound, the “TEAE Insomnia, Grade 1–2” value [1] was 0 patients, n (%), the “TEAE Insomnia, Grade ≥3” value [1] was 0 patients, n (%) and the “TEAE Lower respiratory tract infection, Grade 1–2” value [1] was 0 patients, n (%). The “TEAE Lower respiratory tract infection, Grade ≥3” value [1] was 0 patients, n (%), the “TEAE Nausea, Grade 1–2” value [1] was 1 (50) patients, n (%) and the “TEAE Nausea, Grade ≥3” value [1] was 0 patients, n (%). For the same compound, the “TEAE Neutropenia, Grade 1–2” value [1] was 0 patients, n (%), the “TEAE Neutropenia, Grade ≥3” value [1] was 1 (50) patients, n (%) and the “TEAE Neutrophil count decreased, Grade 1–2” value [1] was 0 patients, n (%). The “TEAE Neutrophil count decreased, Grade ≥3” value [1] was 0 patients, n (%), the “TEAE Platelet count decreased, Grade 1–2” value [1] was 0 patients, n (%) and the “TEAE Platelet count decreased, Grade ≥3” value [1] was 0 patients, n (%). The “TEAE Pyrexia, Grade 1–2” value [1] was 1 (50) patients, n (%), the “TEAE Pyrexia, Grade ≥3” value [1] was 0 patients, n (%) and the “TEAE Thrombocytopenia, Grade 1–2” value [1] was 1 (50) patients, n (%). The “TEAE Thrombocytopenia, Grade ≥3” value [1] was 1 (50) patients, n (%), the “TEAE Upper respiratory tract infection, Grade 1–2” value [1] was 0 patients, n (%) and the “TEAE Upper respiratory tract infection, Grade ≥3” value [1] was 0 patients, n (%). For the same compound, the “TEAE Vomiting, Grade 1–2” value [1] was 1 (50) patients, n (%), the “TEAE Vomiting, Grade ≥3” value [1] was 0 patients, n (%) and the “TEAE White blood cell count decreased, Grade 1–2” value [1] was 0 patients, n (%). For the same compound, the “TEAE White blood cell count decreased, Grade ≥3” value [1] was 1 (50) patients, n (%), the “SRC decision (tolerability)” value (Cohort 1: 20 mg BID days 4–20 (17 days) + carboplatin AUC5, 2 patients) was “declared intolerable; also recorded: Not tolerated” and the “TEAE Abdominal pain, Grade 1–2” value [2] was 0 patients, n (%). The “TEAE Abdominal pain, Grade ≥3” value [2] was 0 patients, n (%), the “TEAE Alanine aminotransferase increased, Grade 1–2” value [2] was 1 (14) patients, n (%) and the “TEAE Alanine aminotransferase increased, Grade ≥3” value [2] was 0 patients, n (%). The “TEAE Anemia, Grade 1–2” value [2] was 2 (29) patients, n (%), the “TEAE Anemia, Grade ≥3” value [2] was 2 (29) patients, n (%) and the “TEAE Any AE, Grade 1–2” value [2] was 2 (29) patients, n (%). The “TEAE Any AE, Grade ≥3” value [2] was 5 (71) patients, n (%), the “TEAE Arthralgia, Grade 1–2” value [2] was 1 (14) patients, n (%) and the “TEAE Arthralgia, Grade ≥3” value [2] was 0 patients, n (%). The “TEAE Aspartate aminotransferase increased, Grade 1–2” value [2] was 1 (14) patients, n (%), the “TEAE Aspartate aminotransferase increased, Grade ≥3” value [2] was 0 patients, n (%) and the “TEAE Constipation, Grade 1–2” value [2] was 2 (29) patients, n (%). The “TEAE Constipation, Grade ≥3” value [2] was 0 patients, n (%), the “TEAE Contusion, Grade 1–2” value [2] was 1 (14) patients, n (%) and the “TEAE Contusion, Grade ≥3” value [2] was 0 patients, n (%). For the same compound, the “TEAE Cough, Grade 1–2” value [2] was 5 (71) patients, n (%), the “TEAE Cough, Grade ≥3” value [2] was 0 patients, n (%) and the “TEAE Decreased appetite, Grade 1–2” value [2] was 1 (14) patients, n (%). For the same compound, the “TEAE Decreased appetite, Grade ≥3” value [2] was 0 patients, n (%), the “TEAE Diarrhea, Grade 1–2” value [2] was 2 (29) patients, n (%) and the “TEAE Diarrhea, Grade ≥3” value [2] was 0 patients, n (%). The “TEAE Dizziness, Grade 1–2” value [2] was 0 patients, n (%), the “TEAE Dizziness, Grade ≥3” value [2] was 0 patients, n (%) and the “TEAE Dyspnea, Grade 1–2” value [2] was 3 (43) patients, n (%). The “TEAE Dyspnea, Grade ≥3” value [2] was 0 patients, n (%), the “TEAE Fatigue, Grade 1–2” value [2] was 4 (58) patients, n (%) and the “TEAE Fatigue, Grade ≥3” value [2] was 1 (14) patients, n (%). The “TEAE Hypocalcemia, Grade 1–2” value [2] was 0 patients, n (%), the “TEAE Hypocalcemia, Grade ≥3” value [2] was 0 patients, n (%) and the “TEAE Insomnia, Grade 1–2” value [2] was 2 (29) patients, n (%). The “TEAE Insomnia, Grade ≥3” value [2] was 0 patients, n (%), the “TEAE Lower respiratory tract infection, Grade 1–2” value [2] was 2 (29) patients, n (%) and the “TEAE Lower respiratory tract infection, Grade ≥3” value [2] was 0 patients, n (%). For the same compound, the “TEAE Nausea, Grade 1–2” value [2] was 2 (29) patients, n (%), the “TEAE Nausea, Grade ≥3” value [2] was 0 patients, n (%) and the “TEAE Neutropenia, Grade 1–2” value [2] was 1 (14) patients, n (%). For the same compound, the “TEAE Neutropenia, Grade ≥3” value [2] was 0 patients, n (%), the “TEAE Neutrophil count decreased, Grade 1–2” value [2] was 0 patients, n (%) and the “TEAE Neutrophil count decreased, Grade ≥3” value [2] was 0 patients, n (%). For the same compound, the “TEAE Platelet count decreased, Grade 1–2” value [2] was 0 patients, n (%), the “TEAE Platelet count decreased, Grade ≥3” value [2] was 1 (14) patients, n (%) and the “TEAE Pyrexia, Grade 1–2” value [2] was 3 (43) patients, n (%). The “TEAE Pyrexia, Grade ≥3” value [2] was 0 patients, n (%), the “TEAE Thrombocytopenia, Grade 1–2” value [2] was 4 (58) patients, n (%) and the “TEAE Thrombocytopenia, Grade ≥3” value [2] was 1 (14) patients, n (%). The “TEAE Upper respiratory tract infection, Grade 1–2” value [2] was 3 (43) patients, n (%), the “TEAE Upper respiratory tract infection, Grade ≥3” value [2] was 0 patients, n (%) and the “TEAE Vomiting, Grade 1–2” value [2] was 2 (29) patients, n (%). The “TEAE Vomiting, Grade ≥3” value [2] was 0 patients, n (%), the “TEAE White blood cell count decreased, Grade 1–2” value [2] was 0 patients, n (%) and the “TEAE White blood cell count decreased, Grade ≥3” value [2] was 0 patients, n (%). The “TEAE Abdominal pain, Grade 1–2” value [3] was 0 patients, n (%), the “TEAE Abdominal pain, Grade ≥3” value [3] was 0 patients, n (%) and the “TEAE Alanine aminotransferase increased, Grade 1–2” value [3] was 0 patients, n (%). The “TEAE Alanine aminotransferase increased, Grade ≥3” value [3] was 0 patients, n (%) and the “TEAE Anemia, Grade 1–2” value [3] was 1 (33) patients, n (%).

From PMC9401487 (Clinical Cancer Research, 2021)
